Test results as given in publication PMC6672714 (Frontiers in Physiology, 2019).
Entries after “also recorded” stand apart in the source; their conditions may differ. No end group written: not given here.

Assays:
[1] = tested on: cultured chick pituitary cells (GnRH1-induced CART mRNA); assay type: cell-based, chicken; conditions: H89 10 μM; GnRH1 10 nM, 24 h; N = 4
Experimental: (§1) As described in our recent studies ([Huang et al., 2014]; [Mo et al., 2015]), anterior pituitaries collected from 1-week-old chicks were sliced and digested by 0.25% trypsin at 37°C for 20 min. The dispersed pituitary cells were cultured at a density of 5 × 10^5 cells/well in Medium 199 supplemented with 15% fetal bovine serum in a Corning Cell BIND 48-well plates (Corning, Tewksbury, MA) at 37°C with 5% CO2. After 24-h culture, the medium was replaced with serum-free M199 medium and the cells were treated with chicken GnRH1/GnRH2 for the duration (12–48 h) or with increasing doses (0.1–100 nM) of each peptide. The total RNA was then extracted from cultured pituitary cells and the expression of CART and β-actin assayed by qPCR.
(§2) “ND” indicates no statistical difference between the two groups. Each data point represents mean ± SEM of four replicates (N = 4). ^**p < 0.01 vs. control; ^#p < 0.01 vs. GnRH1 treatment (in the absence of drug). […] Total ERK2 in cell lysates was also examined and used as internal controls. Note: only a single band for pERK2 or total ERK2 (42 kDa) was detected in cell lysate, because ERK1 gene is lost in chicken genome ([Gerilechaogetu et al., 2009]). The representative sets of independent experimental duplicates are shown here.
(§3) “ND” indicates no statistical difference between the two groups. Each data point represents mean ± SEM of four replicates (N = 4). ^**p < 0.01 vs. control. […] The β-actin in cell lysates were also examined and used as internal controls. The representative sets of independent experimental duplicates are shown here.

[2] = tested on: rat GH3 cells (CART mRNA); set-up: method as in Barrett et al., 2001; conditions: ref Barrett et al., 2001; cited from earlier work
[3] = tested on: ovine pars tuberalis cells (CART mRNA); set-up: method as in Barrett et al., 2001; conditions: ref Barrett et al., 2001; cited from earlier work
[4] = tested on: cultured chick pituitary cells (CART mRNA); assay: CART mRNA expression in cultured chick pituitary cells, qPCR; assay type: cell-based, chicken; conditions: N = 4
From the text: Chicken anterior pituitaries were collected either for cell culture, or for total RNA extraction. Total RNA was extracted from chicken tissues or cultured pituitary cells using RNAzol (Molecular Research Center, Cincinnati, OH) and reversely transcribed using M-MLV reverse transcriptase (TaKaRa). Reverse transcription (RT) samples were then used for quantitative real-time PCR (qPCR) assays to investigate the mRNA expression of target genes, as described in our recent studies ([Cai et al., 2015]; [Mo et al., 2015]).
as §1
The data were analyzed by the Student’s t-test (between two groups) or by one-way ANOVA followed by the Dunnett test in GraphPad Prism 5 (GraphPad Software, San Diego, CA). To validate our results, all experiments were repeated at least three times.
The mRNA levels of CART were normalized by β-actin and expressed as the percentage of respective controls. Each value represents the mean ± SEM of four replicates (N = 4). ^*p < 0.05, ^**p < 0.01 vs. respective control. (E) RT-PCR detection of GnRHR2 expression in cultured chick pituitary cells (three replicates). RT was performed in the presence (+) or absence (−) of reverse transcriptase. Parallel PCR of β-actin was performed to serve as an internal control.

rats (plasma CART) = tested on: rats (plasma CART); set-up: method as in Stanley et al., 2004; conditions: intraperitoneal administration, ref Stanley et al., 2004; cited from earlier work
[5] = tested on: cultured chick pituitary cells (CART mRNA); set-up: method as in Mo et al., 2015; conditions: chickens; ref Mo et al., 2015; cited from earlier work
ERK2 phosphorylation = ERK2 phosphorylation in cultured chick pituitary cells, Western blot; assay type: cell-based, chicken; conditions: 10 nM, 10 min, duplicates
From the text: as §2

chicken GnRHR1 [6] = assay: three cell-based luciferase reporter assays, GnRHR1 (qualitative); conditions: GnRHR1, CHO cells, calcium, MAPK/ERK and cAMP/PKA reporters
From the text: (§4) Based on the reported cDNA sequences of chicken GnRHR1 and GnRHR2 (accession nos.: NM_204653; NM_001012609) ([Sun et al., 2001]; [Shimizu and Bedecarrats, 2006]), gene-specific primers were used to amplify the open reading frame from adult chicken anterior pituitaries using high-fidelity Taq DNA polymerase (TOYOBO, Japan). The amplified PCR products were cloned into the pcDNA3.1 (+) expression vector (Invitrogen) and sequenced. According to our previously established methods, the signaling property of each receptor was examined in Chinese hamster ovary (CHO) cells using pGL3-NFAT-RE-luciferase ([Wang et al., 2012]), pGL4-SRE-luciferase ([Mo et al., 2015]), and pGL3-CRE-luciferase reporter systems ([Wang et al., 2007]).
(§5) Although two GnRH receptors (GnRHR1 and GnRHR2) have been identified in chickens ([Sun et al., 2001]; [Shimizu and Bedecarrats, 2006]; [Joseph et al., 2009]), their downstream signaling pathways have not been fully characterized.
(§6) Figure 5 Activation of chicken GnRHR1 or GnRHR2 expressed in CHO cells by chicken GnRH1 or GnRH2, monitored by pGL3-NFAT-RE-luciferase (A,D), pGL4-SRE-luciferase (B,E), and pGL3-CRE-luciferease (C,F) reporter systems. […] Each data point represents mean ± SEM of four replicates (N = 4).

chicken GnRHR2 [7] = assay: pGL3-NFAT-RE-luciferase reporter, calcium signaling pathway, CHO cells expressing chicken GnRHR2; assay type: cell-based; conditions: four replicates
From the text: as §4, §5, §6

chicken GnRHR1 [8] = assay: pGL4-SRE-luciferase reporter, MAPK/ERK signaling pathway, CHO cells expressing chicken GnRHR1; assay type: cell-based; conditions: four replicates
From the text: as §4, §5, §6

chicks (plasma CART) = assay: plasma CART levels after intraperitoneal administration in chicks, ELISA; assay type: in vivo, chicken; conditions: 5 μg/chick, 30 min, male chicks
Experimental: The levels of CART peptide in chicken plasma was then determined by competitive ELISA assay.
Each data point represents mean ± SEM of seven 19-day-old male individuals (N = 7). ^*p < 0.05 vs. saline (control).

chicken GnRHR2 [9] = assay: pGL3-CRE-luciferase reporter, cAMP/PKA signaling pathway, CHO cells expressing chicken GnRHR2; assay type: cell-based; conditions: four replicates
From the text: as §4, §5, §6

chicken GnRHR1 [10] = assay: pGL3-CRE-luciferase reporter, cAMP/PKA signaling pathway, CHO cells expressing chicken GnRHR1; assay type: cell-based; conditions: four replicates
From the text: as §4, §5, §6

CREB phosphorylation = CREB phosphorylation in cultured chick pituitary cells, Western blot; assay type: cell-based, chicken; conditions: 10 nM, 5 min, duplicates
From the text: as §3

[11] = tested on: intact anterior pituitaries (CART secretion); assay: CART peptide secretion from intact anterior pituitaries incubated in vitro, Western blot; assay type: cell-based, chicken; conditions: 4 h, intact chick pituitaries, N = 3
Experimental: As described in our recent study ([Huang et al., 2014]), the intact anterior pituitaries collected from 1-week-old male chicks were washed with PBS and placed on a 48-well plate (NUNC) supplemented with 400 μl serum-free Medium 199 (Invitrogen). After 1-h incubation at 37°C, the medium was replaced by 300 μl serum-free Medium 199 containing different concentrations of chicken GnRH1 or GnRH2 (0.1–100 nM) and incubated for 4 h. […] Parallel blotting of β-actin and CART in pituitary tissue lysates was also conducted.
The intracellular CART (iCART) and β-actin levels in the pituitary tissue lysate were also examined in parallel. […] Each data point represents mean ± SEM of three replicates (N = 3). ^*p < 0.05; ^**p < 0.01 vs. respective control. […] One representative set of Western blot is shown at the top of each graph.

chicken GnRHR2 [12] = assay: three cell-based luciferase reporter assays, GnRHR2 (qualitative); conditions: GnRHR2, CHO cells, calcium, MAPK/ERK and cAMP/PKA reporters
From the text: as §4, §5, §6

chicken GnRHR1 [13] = assay: pGL3-NFAT-RE-luciferase reporter, calcium signaling pathway, CHO cells expressing chicken GnRHR1; assay type: cell-based; conditions: four replicates
From the text: as §4, §5, §6

chicken GnRHR2 [14] = assay: pGL4-SRE-luciferase reporter, MAPK/ERK signaling pathway, CHO cells expressing chicken GnRHR2; assay type: cell-based; conditions: four replicates
From the text: as §4, §5, §6

[15] = tested on: rat pituitary (CART secretion); set-up: method as in Kappeler et al., 2006; conditions: rat pituitary upon perfusion; ref Kappeler et al., 2006; cited from earlier work

## O=S(=O)(NCCNC/C=C/c1ccc(Br)cc1)c1cccc2cnccc12 [H89]
[1]
  effect on GnRH1-induced CART mRNA expression: could abolish GnRH1-induced CART expression
[2]
  effect on AC activator- or cAMP analog-stimulated CART mRNA levels: abolished

## CCCCCCCCCCCCCC(=O)O[C@@H]1[C@@H](C)[C@@]2(O)[C@@H](C=C(CO)C[C@]3(O)C(=O)C(C)=C[C@@H]23)[C@@H]2C(C)(C)[C@]12OC(C)=O [PMA, phorbol-12-myristate-13-acetate, reference compound]
[3]
  CART mRNA expression: enhances CART mRNA expression
[4]; PMA 100 nM, 48 h
  effect on CART mRNA expression: could mimic GnRH1 action

## CRH: corticotropin-releasing hormone, hypothalamic factor (literature results only)
Rats (plasma CART)
  plasma CART levels: increase plasma CART levels in rats
[5]
  potency as stimulator of pituitary CART secretion and expression: potent stimulator of pituitary CART secretion and expression

## GnRH1: chicken gonadotropin-releasing hormone 1, synthesized using solid-phase Fmoc chemistry; an ortholog of mammalian GnRH (QHWSYGLQPG; ends and bridges not checked; UniProt P37042 24-33, looked up)
ERK2 phosphorylation
  ERK2 phosphorylation: could enhance ERK2 phosphorylation
Chicken GnRHR1 [6]
  activation of GnRHR1 (luciferase activity): stimulate the luciferase activities dose-dependently
Chicken GnRHR2 [7]
  EC50: 1.54 nM
Chicken GnRHR1 [8]
  EC50: 270 nM
Chicks (plasma CART); N = 7, p < 0.05
  increase in plasma CART levels vs saline: two-fold
Chicks (plasma CART); N = 7, saline control 1.3 ng/ml, p < 0.05
  plasma CART level: 2.7 ng/mL
Chicken GnRHR2 [9]
  EC50: 2.15 nM
Chicken GnRHR1 [10]
  EC50: 69.3 nM
CREB phosphorylation
  CREB phosphorylation: could enhance CREB phosphorylation
[11]; 0–100 nM
  secretion of mature CART peptide: potently stimulated the secretion of mature CART peptide
[11]
  minimal effective concentration, CART secretion: 1 nM
Chicken GnRHR2 [12]
  activation of GnRHR2 (luciferase activity): stimulate the luciferase activities dose-dependently; also recorded: potently activated by both GnRH1 and GnRH2
[4]; 0–100 nM, 48 h, qPCR
  effect on CART mRNA expression, dose dependence: stimulate CART expression dose-dependently
[4]; 10 nM, qPCR
  treatment time of maximal effect on CART mRNA expression: 48 h
[4]; 10 nM, time course (12–48 h), qPCR
  effect on CART mRNA expression: induce CART expression in a time-dependent manner
[4]; 48 h, qPCR
  minimal effective dose, CART mRNA expression: 1 nM
Chicken GnRHR1 [13]
  EC50: 11.3 nM
Chicken GnRHR2 [14]
  EC50: 29.9 nM

## GnRH: GnRH perfused on rat pituitary in a previous study (form not specified) (QHWSYGLRPG; ends and bridges not checked; UniProt P07490 24-33, looked up)
[15]
  CART secretion: CART secretion is induced
